# Reference: patent US9040249B2, “Pan-kinase activation and evaluation of signaling pathways” (Beckman Coulter, Inc., priority 2008, dated 2015)
# Where “and” joins values, the source holds several entries; their conditions need not be identical. Equal entries are not always repeated. Entries after “also recorded” stand apart in the source; their conditions may differ.
# Legend:
# [1] = test system: ribosomal S6 protein; assay: Inhibition of S6 activation by LPS with ERK and PI3K inhibitors; format: cell-based, human
# Protocol: (§1) 100 μl of blood was inserted into the bottom of 12×75 mm tubes. Blood was removed from the side of tube with cotton swab to eliminate potential contamination of the sample with unfixed cells. 100 ng lipopolysaccharide (LPS) was added to activation tubes (or equal volume of phosphate buffered saline (PBS) to control tubes) and the tubes were placed in 37° C. water bath.
# (§2) After various incubation times (e.g. 1 minute to 60 minutes), the first tube was removed from the incubator and 65 μl 10% formaldehyde was added into tube. The tubes were mixed and placed in a rack and incubated at room temperature. After exactly a 10 minute incubation with formaldehyde, 1 ml Lyse/Permeabilization Buffer ([…] TRITON X-100 10% stock solution to 500 ml with PBS. 0.1165% TRITON X-100 solution at room temperature in the dark and pre-heated to 37° C. immediately prior to use.) was added to each tube, vortexed vigorously and returned to the rack. The tubes were incubated at room temperature for 15 minutes.
# 2 ml cold Wash Buffer (PBS (w/o Ca++/Mg++) with 4% FBS, sterile filtered (0.22 um filter)) (4° C.) was added to each tube. All tubes were centrifuged at 500×g for 4 minutes. […]
# Antibodies and cold Wash Buffer were added to a final volume of 100 μl and incubated at room temperature for 30 minutes. […] Cells were resuspended in 1 ml Wash Buffer, vortexed and analyzed on the flow cytometer. […]
# [2] = test system: p38 MAP Kinase; assay: LPS activation of MAPK signaling in whole blood monocytes, flow cytometry (P-p38); format: cell-based, human
# Protocol: as §1, §2
# (§3) 2 ml cold Wash Buffer (PBS (w/o Ca++/Mg++) with 4% FBS, sterile filtered (0.22 um filter)) (4° C.) was added to each tube. All tubes were centrifuged at 500×g for 4 minutes. Tubes were removed from the centrifuge and supernate fluid was aspirated. 1 ml of cold (4° C.) 50% methanol was added to each tube and vortexed. All tubes were then incubated on ice for 10 minutes.
# (§4) The tubes were then centrifuged at 500×g for 4 minutes and the supernate fluid was aspirated. 2 ml cold Wash Buffer (4° C.) was added to each tube. All tubes were centrifuged at 500×g for 4 minutes. Tubes were removed from the centrifuge and supernate fluid was aspirated.
# (§5) Antibodies and cold Wash Buffer were added to a final volume of 100 μl and incubated at room temperature for 30 minutes. 2 ml cold Wash buffer was added, mixed and centrifuged. Cells were resuspended in 1 ml Wash Buffer, vortexed and analyzed on the flow cytometer.
# (§6) In this study, a simultaneous measurement of four different signaling phospho-epitopes, which include P-ERK, P-p38 MAP Kinase, P-SAPK (Stress-Activated Protein Kinase), and P-S6 ribosomal protein (a measurement of new polypeptide synthesis), was conducted. This assay employed a measurement of the time course of LPS activation, in both “naive” whole blood, and whole blood samples previously exposed to LPS activation (“re-activated”). This assay also employed the fixation and permeabilization approach described above to measure both cell surface (CD14 to identify monocytes) and cytoplasmic or nuclear localized phospho-epitopes (P-ERK, P-p38, P-SAPK, and P-S6). This assay also employed an internal negative control to analyzing the data, relying on populations, rather than isotype controls, and measuring changes in MFI (mean fluorescence intensity) rather than percent positive.
# [3] = test system: ribosomal S6 protein; assay: LPS activation of ribosomal S6 protein in whole blood monocytes, flow cytometry (P-S6); format: cell-based, human
# Protocol: as §1, §2, §3, §4, §5, §6
# [4] = test system: ERK; conditions: cited from earlier work
# [5] = test system: ERK; assay: LPS activation of MAPK signaling in whole blood monocytes, flow cytometry (P-ERK); format: cell-based, human
# Protocol: as §1, §2, §3, §4, §5, §6
# [6] = test system: SAPK/JNK; assay: LPS activation of MAPK signaling in whole blood monocytes, flow cytometry (P-SAPK/JNK); format: cell-based, human
# Protocol: as §1, §2, §3, §4, §5, §6
# [7] = normal whole blood, LPS 10 minutes at 37° C.
# [8] = previously LPS-stimulated, 0 time of re-exposure
# [9] = re-stimulation after 60 minutes, up to 2 hours
# [10] = normal samples not previously exposed to LPS
# [11] = up to 120 minutes post stimulation
compound,measurement,setting,value
N#CC(=C(/N)Sc1ccccc1N)/C(C#N)=C(\N)Sc1ccccc1N [U0126],inhibition of S6 activation by LPS,[1]; ERK inhibitor U0126 and PI3K inhibitor Ly294002 both present,inhibition of phosphorylation was seen; also recorded: Complete inhibition
same,inhibition of S6 activation by LPS,[1]; inhibitor alone,Only inhibition of both pathways leads to complete inhibition
lipopolysaccharide [LPS],percentage of P-p38 positive monocytes,[2]; 15 min after LPS re-exposure,46%
same,aggregate MFI of P-p38,[2]; 15 minutes after re-exposure to LPS,5.5
same,p38 pathway activity after 60 minutes of LPS activation,[2]; 60 minutes,"decreased, but do not return to baseline"
same,monocytes retaining the same P-p38 MFI as in the 15 min primary response,[2]; 120 min after primary LPS stimulation,Roughly 50%
same,monocyte population showing significant increase in P-p38 MFI,[2]; after primary LPS stimulation,about 100%
same,levels of P-p38 after primary LPS stimulation,[2]; even after periods of 120 min,do not return to basal levels
same,activated p38 in CD14+ monocytes,[2]; [7],"all CD14+ monocytes have activated p-38, JNK, and ERK"
same,aggregate MFI of P-p38,[2]; [8],5.0
same,percentage of P-p38 positive monocytes,[2]; [8],40%
same,time to maximal P-p38 MFI after LPS stimulation,[2]; primary LPS stimulation,15 min
same,P-p38 MFI peak time after restimulation with LPS,[2]; re-stimulation,15 to 20 min
same,p38 activity when additional LPS is added,[2]; [9],no additional increase in any MAPK activity
same,peak activation of S6 relative to other pathway proteins,[3]; LPS stimulated monocytes,later than other MAPK pathway proteins
same,time of P-S6 peak after LPS stimulation,"[3]; normal individuals, primary stimulation",15 to 30 min and 15 to 60 min
same,persistence of P-S6 levels following LPS stimulation,[3]; primary stimulation,> 120 min
same,MFI of the P-S6 population following LPS re-stimulation,[3]; re-stimulation,little change in the MFI
same,percent of monocytes expressing phospho-ERK after LPS treatment in vitro,"[4]; normal controls, 15 min after LPS addition, 35% without LPS",58%
same,increase in P-ERK monocytes following LPS addition in vitro,"[4]; presumably septic patients, 25% before LPS",less than 10%
same,ERK pathway activity after 60 minutes of LPS activation,[5]; 60 minutes,"decreased, but do not return to baseline"
same,"early P-ERK peak, time after LPS addition",[5]; [10],1 to 4 min
same,"second P-ERK peak, time after LPS stimulation",[5]; [10],10 to 15 min
same,activated ERK in CD14+ monocytes,[5]; [7],"all CD14+ monocytes have activated p-38, JNK, and ERK"
same,ERK activity when additional LPS is added,[5]; [9],no additional increase in any MAPK activity
same,ERK activation six minutes after LPS activation,"[5]; six minutes, 37° C.",initial ERK activation declines
same,MFI of P-ERK upon re-exposure to LPS,"[5]; up to 90 minutes after LPS re-stimulation, versus 0 time control",does not change significantly above the 0 time control
same,"earliest ERK activation, time following LPS stimulation","[5]; whole blood monocytes, 37° C., before JNK or p38 activation",2 min
same,JNK pathway activity after 60 minutes of LPS activation,[6]; 60 minutes,"decreased, but do not return to baseline"
same,time of P-SAPK peak after initial LPS stimulation,[6]; initial stimulation,15 min
same,activated JNK in CD14+ monocytes,[6]; [7],"all CD14+ monocytes have activated p-38, JNK, and ERK"
same,JNK activity when additional LPS is added,[6]; [9],no additional increase in any MAPK activity
same,P-SAPK levels after initial LPS stimulation,[6]; [11],do not return to basal levels
same,P-SAPK positive monocytes,[6]; [11],30-40%
